ChEMBL document CHEMBL3880392, “Tropane-derivatives, their preparation and use” (2002)

Columns and labels:
Format in all cases: subcellular
[1] = biological target: Sodium-dependent dopamine transporter (Rattus norvegicus) (UniProt P23977); test: Inhibition of re-uptake of [3H]dopamine at DAT in Wistar rat corpus striatum synaptosomes by liquid scintillation counting relative to untreated control; conditions: concentration not given here
[2] = biological target: Transporter (Rattus norvegicus) (UniProt F1LNR9); test: Inhibition of re-uptake of [3H]noradrenaline at NET in Wistar rat hippocampal synaptosomes by liquid scintillation counting relative to untreated control; conditions: Hippocampus, concentration not given here
[3] = biological target: Sodium-dependent serotonin transporter (Rattus norvegicus) (UniProt P31652); test: Inhibition of re-uptake of [3H]5-hydroxytryptamine at SERT in Wistar rat cortical synaptosomes by liquid scintillation counting relative to untreated control; conditions: concentration not given here

Measured: inhibition

Chain of Sodium-dependent dopamine transporter (Rattus norvegicus) (P23977 whole entry): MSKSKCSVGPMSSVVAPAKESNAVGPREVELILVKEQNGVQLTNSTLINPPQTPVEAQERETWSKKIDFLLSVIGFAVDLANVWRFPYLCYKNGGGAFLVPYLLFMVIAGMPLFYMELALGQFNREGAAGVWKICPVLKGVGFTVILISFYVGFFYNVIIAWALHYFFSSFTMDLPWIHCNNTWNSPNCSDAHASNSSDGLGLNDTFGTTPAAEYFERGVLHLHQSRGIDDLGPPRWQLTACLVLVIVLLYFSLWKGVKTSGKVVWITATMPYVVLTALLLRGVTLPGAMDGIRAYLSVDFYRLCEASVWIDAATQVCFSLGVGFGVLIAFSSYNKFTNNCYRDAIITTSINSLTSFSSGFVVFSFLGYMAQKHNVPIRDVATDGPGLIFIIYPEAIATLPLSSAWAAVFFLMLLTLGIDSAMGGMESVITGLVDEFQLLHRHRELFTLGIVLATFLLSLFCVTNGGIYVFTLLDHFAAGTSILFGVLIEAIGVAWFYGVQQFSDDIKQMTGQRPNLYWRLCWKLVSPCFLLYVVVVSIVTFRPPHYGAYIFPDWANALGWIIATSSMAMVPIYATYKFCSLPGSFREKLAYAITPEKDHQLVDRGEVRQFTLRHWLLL
Chain of Transporter (Rattus norvegicus) (F1LNR9 as listed by the source): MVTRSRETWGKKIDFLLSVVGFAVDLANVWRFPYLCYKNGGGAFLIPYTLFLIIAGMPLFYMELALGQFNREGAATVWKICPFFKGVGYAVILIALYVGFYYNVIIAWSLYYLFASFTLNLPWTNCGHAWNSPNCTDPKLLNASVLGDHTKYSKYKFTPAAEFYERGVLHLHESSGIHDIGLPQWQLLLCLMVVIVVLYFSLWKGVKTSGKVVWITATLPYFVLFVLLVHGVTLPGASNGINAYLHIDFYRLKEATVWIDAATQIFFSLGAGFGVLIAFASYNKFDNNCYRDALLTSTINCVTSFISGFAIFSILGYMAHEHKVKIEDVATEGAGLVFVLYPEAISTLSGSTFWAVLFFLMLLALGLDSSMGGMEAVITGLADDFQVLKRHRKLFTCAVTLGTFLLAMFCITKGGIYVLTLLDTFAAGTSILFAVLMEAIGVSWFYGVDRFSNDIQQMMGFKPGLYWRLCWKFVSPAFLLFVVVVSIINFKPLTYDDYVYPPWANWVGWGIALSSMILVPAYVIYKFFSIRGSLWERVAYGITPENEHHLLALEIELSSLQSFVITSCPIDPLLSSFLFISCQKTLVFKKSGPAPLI
Chain of Sodium-dependent serotonin transporter (Rattus norvegicus) (P31652 whole entry): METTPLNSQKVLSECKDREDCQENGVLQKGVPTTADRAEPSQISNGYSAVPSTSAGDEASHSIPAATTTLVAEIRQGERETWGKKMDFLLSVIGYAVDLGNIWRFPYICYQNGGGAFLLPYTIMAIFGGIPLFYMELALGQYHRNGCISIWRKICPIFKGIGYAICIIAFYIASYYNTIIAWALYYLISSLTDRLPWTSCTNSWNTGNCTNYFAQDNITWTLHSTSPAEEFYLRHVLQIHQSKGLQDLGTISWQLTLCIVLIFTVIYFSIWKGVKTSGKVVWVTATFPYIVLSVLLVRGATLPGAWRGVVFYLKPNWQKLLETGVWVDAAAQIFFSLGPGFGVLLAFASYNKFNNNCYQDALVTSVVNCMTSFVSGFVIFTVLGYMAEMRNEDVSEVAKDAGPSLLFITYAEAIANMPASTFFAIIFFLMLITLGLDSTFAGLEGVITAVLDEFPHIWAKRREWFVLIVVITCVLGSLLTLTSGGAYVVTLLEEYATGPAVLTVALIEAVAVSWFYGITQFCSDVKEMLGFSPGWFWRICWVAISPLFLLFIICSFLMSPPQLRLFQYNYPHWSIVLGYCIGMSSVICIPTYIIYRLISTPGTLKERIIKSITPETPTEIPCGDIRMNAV

CCOC[C@@H]1[C@@H](c2ccc(Cl)c(Cl)c2)C[C@@H]2CC[C@H]1N2C
25 to 75%: [1] | [2] | [3]

CN1[C@H]2CC[C@@H]1[C@H](CSc1ccccc1)[C@@H](c1ccc(Cl)c(Cl)c1)C2
25 to 75%: [1] | [2] | [3]

COC[C@@H]1[C@@H](c2ccc(Cl)c(Cl)c2)C[C@@H]2CC[C@H]1N2C
25 to 75%: [1] | [2] | [3]
